Source: PubChem BioAssay AID330 (DTP/NCI, 2004)
Several values for one entry are separate records, joined by “and”; a condition that tells them apart may be missing. Equal entries are not always repeated. Inconclusive results and toxic doses are left out.

System: P388 leukemia ip, CD2F1 mice, survival T/C
Assay: NCI In Vivo Anticancer Drug Screen. Data for tumor model P388 Leukemia (intraperitoneal) in CD2F1 (CDF1) mice
Conditions: endpoint: median survival time, higher = longer survival
Method in brief: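 Mice carrying the transplanted tumor received test compound or vehicle. Survival was recorded in each group, and the value is the treated-group measurement divided by that of the vehicle-treated control group.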

[1] = dose: 50.0 mg/kg/injection, schedule: Q04DX003 (ip), vehicle: saline
[2] = dose: 100.0 mg/kg/injection, schedule: Q04DX003 (ip), vehicle: saline
[3] = dose: 25.0 mg/kg/injection, schedule: Q01DX009 (ip), vehicle: saline with Tween-80
[4] = dose: 50.0 mg/kg/injection, schedule: Q01DX009 (ip), vehicle: saline with Tween-80
[5] = dose: 100.0 mg/kg/injection, schedule: Q01DX009 (ip), vehicle: saline with Tween-80
[6] = dose: 50.0 mg/kg/injection, schedule: Q01DX005 (ip), vehicle: saline with Tween-80
[7] = dose: 100.0 mg/kg/injection, schedule: Q01DX005 (ip), vehicle: saline with Tween-80

COC1C/C(=N\O)C2OC(c3ccccc3)OCC2O1 (configuration not stated)
T/C (dose: 1.56 mg/kg/injection, schedule: Q01DX009 (ip), vehicle: other): 96 % of control
T/C (dose: 3.13 mg/kg/injection, schedule: Q01DX009 (ip), vehicle: other): 104 % of control
T/C (dose: 6.25 mg/kg/injection, schedule: Q01DX009 (ip), vehicle: other): 106 % of control
T/C (dose: 12.5 mg/kg/injection, schedule: Q01DX009 (ip), vehicle: other): 92 % of control
T/C (dose: 25.0 mg/kg/injection, schedule: Q01DX009 (ip), vehicle: other): 101 % of control and 94 % of control
T/C (dose: 50.0 mg/kg/injection, schedule: Q01DX009 (ip), vehicle: other): 99 % of control
T/C (dose: 100.0 mg/kg/injection, schedule: Q01DX009 (ip), vehicle: other): 100 % of control
T/C (dose: 200.0 mg/kg/injection, schedule: Q01DX009 (ip), vehicle: other): 98 % of control
T/C (dose: 400.0 mg/kg/injection, schedule: Q01DX009 (ip), vehicle: other): 100 % of control

O=C(O)C(=O)c1ccccc1
T/C [1]: 100 % of control
T/C [2]: 105 % of control
T/C (dose: 200.0 mg/kg/injection, schedule: Q04DX003 (ip), vehicle: saline): 100 % of control

COc1ccc(C)cc1NC(=O)ON=C1CCCCC1
T/C (dose: 60.0 mg/kg/injection, schedule: Q01DX005 (ip), vehicle: saline with Tween-80): 95 % of control
T/C (dose: 120.0 mg/kg/injection, schedule: Q01DX005 (ip), vehicle: saline with Tween-80): 94 % of control
T/C (dose: 240.0 mg/kg/injection, schedule: Q01DX005 (ip), vehicle: saline with Tween-80): 100 % of control

CC(C)(CO)NCC(O)CS(=O)(=O)O (configuration not stated)
T/C (dose: 60.0 mg/kg/injection, schedule: Q01DX005 (ip), vehicle: saline): 100 % of control
T/C (dose: 120.0 mg/kg/injection, schedule: Q01DX005 (ip), vehicle: saline): 100 % of control
T/C (dose: 240.0 mg/kg/injection, schedule: Q01DX005 (ip), vehicle: saline): 101 % of control

CC(N)CCC(C)(C)O (configuration not stated)
T/C (dose: 25.0 mg/kg/injection, schedule: Q04DX003 (ip), vehicle: saline): 100 % of control
T/C [1]: 90 % of control
T/C [2]: 100 % of control

C=Cn1c([N+](=O)[O-])cnc1/C=C/c1ccc(C(=O)N(CCCC)CCCC)cc1
T/C (dose: 100.0 mg/kg/injection, schedule: Q04DX002 (ip), vehicle: saline with Tween-80): 100 % of control
T/C (dose: 200.0 mg/kg/injection, schedule: Q04DX002 (ip), vehicle: saline with Tween-80): 100 % of control
T/C (dose: 400.0 mg/kg/injection, schedule: Q04DX002 (ip), vehicle: saline with Tween-80): 89 % of control

CN(N=O)C(=O)N[C@@H](C=O)[C@@H](O)[C@H](O)[C@H](O)CO
T/C (dose: 31.25 mg/kg/injection, schedule: Q01DX001 (ip), vehicle: other): 105 % of control and 106 % of control
T/C (dose: 62.5 mg/kg/injection, schedule: Q01DX001 (ip), vehicle: other): 105 % of control and 109 % of control
T/C (dose: 80.0 mg/kg/injection, schedule: Q04DX003 (ip), vehicle: citric acid): 110 % of control
T/C (dose: 80.0 mg/kg/injection, schedule: Q04DX003 (ip), vehicle: other): 108 % of control
T/C (dose: 120.0 mg/kg/injection, schedule: Q04DX003 (ip), vehicle: other): 107 % of control and 114 % of control
T/C (dose: 125.0 mg/kg/injection, schedule: Q01DX001 (ip), vehicle: other): 111 % of control and 117 % of control
T/C (dose: 180.0 mg/kg/injection, schedule: Q04DX003 (ip), vehicle: citric acid): 119 % of control
T/C (dose: 180.0 mg/kg/injection, schedule: Q04DX003 (ip), vehicle: other): 118 % of control and 122 % of control
T/C (dose: 240.0 mg/kg/injection, schedule: Q04DX003 (ip), vehicle: other): 112 % of control and 120 % of control
T/C (dose: 500.0 mg/kg/injection, schedule: Q01DX001 (ip), vehicle: other): 90 % of control

O=C1CCCC2C3CC(CN12)C1CCCCN1C3 (configuration not stated)
T/C [3]: 100 % of control
T/C [4]: 120 % of control
T/C [5]: 105 % of control

CCCCCCCCCCCCCOCC(=O)OC
T/C [4]: 100 % of control
T/C [5]: 104 % of control
T/C (dose: 200.0 mg/kg/injection, schedule: Q01DX009 (ip), vehicle: saline with Tween-80): 105 % of control

COc1ccccc1CNCCCCCCNCCSSCCNCCCCCCNCc1ccccc1OC
T/C (dose: 12.5 mg/kg/injection, schedule: Q04DX002 (ip), vehicle: suspension in saline): 102 % of control
T/C (dose: 25.0 mg/kg/injection, schedule: Q04DX002 (ip), vehicle: suspension in saline): 97 % of control

Cc1ccc(N/N=c2\c3nc4ccccc4nc2n(-c2ccccc2C)c(=S)n3-c2ccccn2)cc1
T/C [6]: 100 % of control
T/C [7]: 96 % of control

CC1COCCOC(=O)c2cccc(n2)C(=O)OCCOCC(C)O1 (configuration not stated)
T/C (dose: 100.0 mg/kg/injection, schedule: Q04DX003 (ip), vehicle: Klucel (hydroxypropylcellulose) (HPC)): 102 % of control
T/C (dose: 200.0 mg/kg/injection, schedule: Q04DX003 (ip), vehicle: Klucel (hydroxypropylcellulose) (HPC)): 95 % of control
T/C (dose: 400.0 mg/kg/injection, schedule: Q04DX003 (ip), vehicle: Klucel (hydroxypropylcellulose) (HPC)): 102 % of control

O=C1c2ccc[n+]3c2-c2c1ccc[n+]2CC3
T/C (dose: 12.5 mg/kg/injection, schedule: Q01DX001 (ip), vehicle: saline): 108 % of control
T/C (dose: 25.0 mg/kg/injection, schedule: Q01DX001 (ip), vehicle: saline): 115 % of control
T/C (dose: 50.0 mg/kg/injection, schedule: Q01DX001 (ip), vehicle: saline): 101 % of control

CC(=O)C1OC1c1ccccn1 (configuration not stated)
T/C (dose: 25.0 mg/kg/injection, schedule: Q01DX005 (ip), vehicle: saline): 102 % of control
T/C (dose: 25.0 mg/kg/injection, schedule: Q01DX005 (ip), vehicle: suspension in saline): 103 % of control
T/C (dose: 50.0 mg/kg/injection, schedule: Q01DX005 (ip), vehicle: saline): 102 % of control
T/C (dose: 50.0 mg/kg/injection, schedule: Q01DX005 (ip), vehicle: suspension in saline): 100 % of control
T/C (dose: 100.0 mg/kg/injection, schedule: Q01DX005 (ip), vehicle: saline): 104 % of control
T/C (dose: 100.0 mg/kg/injection, schedule: Q01DX005 (ip), vehicle: suspension in saline): 110 % of control
T/C (dose: 200.0 mg/kg/injection, schedule: Q01DX005 (ip), vehicle: saline): 102 % of control
T/C (dose: 200.0 mg/kg/injection, schedule: Q01DX005 (ip), vehicle: suspension in saline): 100 % of control

FC(F)(F)c1ccccc1C(Nc1nncs1)Nc1nncs1
T/C [6]: 97 % of control
T/C [7]: 101 % of control
T/C (dose: 200.0 mg/kg/injection, schedule: Q01DX005 (ip), vehicle: saline with Tween-80): 107 % of control

Cc1ccc2c(c1)Pc1cc(C)ccc1S2
T/C (dose: 60.0 mg/kg/injection, schedule: Q01DX005 (ip), vehicle: Klucel (hydroxypropylcellulose) (HPC)): 109 % of control
T/C (dose: 120.0 mg/kg/injection, schedule: Q01DX005 (ip), vehicle: Klucel (hydroxypropylcellulose) (HPC)): 101 % of control
T/C (dose: 240.0 mg/kg/injection, schedule: Q01DX005 (ip), vehicle: Klucel (hydroxypropylcellulose) (HPC)): 104 % of control

COc1cc2c(c(OC)c1OC)-c1ccc(N)c(=O)cc1[C@@H](NC(C)=O)CC2
T/C (dose: 0.5 mg/kg/injection, schedule: Q01DX010 (ip), vehicle: saline): 109 % of control
T/C (dose: 1.0 mg/kg/injection, schedule: Q01DX010 (ip), vehicle: saline): 118 % of control
T/C (dose: 3.12 mg/kg/injection, schedule: Q01DX009 (ip), vehicle: Klucel (hydroxypropylcellulose) (HPC)): 86 % of control
T/C (dose: 6.25 mg/kg/injection, schedule: Q01DX009 (ip), vehicle: Klucel (hydroxypropylcellulose) (HPC)): 108 % of control

CSC(=S)N/N=C(/C)CC(C)C
T/C (dose: 12.5 mg/kg/injection, schedule: Q01DX009 (ip), vehicle: saline with Tween-80): 105 % of control
T/C [3]: 120 % of control
T/C [4]: 100 % of control

CCCCC/C(=C\c1ccccc1)C1OCC(COCC)O1 (configuration not stated)
T/C (dose: 100.0 mg/kg/injection, schedule: Q01DX009 (ip), vehicle: saline + Tween-80 + alcohol): 119 % of control
T/C (dose: 200.0 mg/kg/injection, schedule: Q01DX009 (ip), vehicle: saline + Tween-80 + alcohol): 118 % of control

COc1cccc2c1C(=O)c1c(O)c3c(c(O)c1C2=O)CC(O)(/C(C)=N/NC(=O)c1cc(C(F)(F)F)cc(C(F)(F)F)c1)CC3OC1CC(N)C(O)C(C)O1 (configuration not stated)
T/C (dose: 0.78 mg/kg/injection, schedule: Q01DX009 (ip), vehicle: water): 151 % of control
T/C (dose: 1.56 mg/kg/injection, schedule: Q01DX009 (ip), vehicle: water): 174 % of control
T/C (dose: 3.13 mg/kg/injection, schedule: Q01DX009 (ip), vehicle: water): 160 % of control and 185 % of control
T/C (dose: 6.25 mg/kg/injection, schedule: Q01DX009 (ip), vehicle: water): 93 % of control and 95 % of control
